Assay results from ChEMBL document CHEMBL4265946, “Activity of oxygen-versus sulfur-containing analogs of the Flex-Het anticancer agent SHetA2” (Eur J Med Chem, 2018).

Columns and labels:
A2780 [1] = assay: Growth inhibition of human A2780 cells after 72 hrs by CellTiter-96 assay; type: functional, cell-based; conditions: A2780, 72 h
A2780 [2] = assay: Growth inhibition of human A2780 cells at 10 uM after 72 hrs by CellTiter-96 assay relative to control; type: functional; conditions: A2780, 72 h, read-out: GI
[3] = Toxicity in dog; type: organism-based, Canis lupus familiaris; conditions: in vivo
[4] = Toxicity in rat; type: organism-based; conditions: in vivo

Structure (SMILES)	IC50 (A2780 [1])	inhibition of growth at 10 µM (A2780 [2])	NOAEL [3]	NOAEL [4]
CC1(C)CC(C)(C)c2cc(N/C(S)=N/c3ccc([N+](=O)[O-])cc3)ccc2O1	6.96 µM	87%	–	–
CC1(C)CCOc2ccc(NC(=S)Nc3ccc([N+](=O)[O-])cc3)cc21	6.4 µM	19%	–	–
CCC1(CC)CC(CC)(CC)c2cc(NC(=O)Nc3ccc(C(F)(F)F)cc3)ccc2O1	2 µM	86.2%	–	–
CC1(C)CCOc2ccc(NC(=O)Nc3ccc([N+](=O)[O-])cc3)cc21	6.7 µM	74%	–	–
CC1(C)CC(C)(C)c2cc(NC(=S)Nc3ccc(S(N)(=O)=O)cc3)ccc2O1	6.9 µM	32%	–	–
CCC1(CC)CC(CC)(CC)c2cc(NC(=S)Nc3ccc([N+](=O)[O-])cc3)ccc2O1	4.6 µM	94%	–	–
CC1(C)CCOc2ccc(NC(=S)Nc3ccc(C(F)(F)F)cc3)cc21	5.5 µM	28%	–	–
CC1(C)CCOc2ccc(NC(=O)Nc3ccc(OC(F)(F)F)cc3)cc21	3.5 µM	36%	–	–
CCC1(CC)CC(C)(C)c2cc(NC(=O)Nc3ccc(C(F)(F)F)cc3)ccc2O1	2.45 µM	92.4%	–	–
CCC1(CC)CC(C)(C)Oc2ccc(NC(=O)Nc3ccc([N+](=O)[O-])cc3)cc21	2.05 µM	93.7%	–	–
CC1(C)CC(C)(C)c2cc(NC(=O)Nc3ccc(C(F)(F)F)cc3)ccc2O1	3.6 µM	88.4%	–	–
CC1(C)CC(C)(C)c2cc(NC(=S)Nc3ccc(C(F)(F)F)cc3)ccc2O1	43.7 µM	2%	–	–
CCC1(CC)CC(CC)(CC)c2cc(NC(=O)Nc3ccc(OC(F)(F)F)cc3)ccc2O1	3 µM	67%	–	–
CCC1(CC)CC(C)(C)Oc2ccc(NC(=S)Nc3ccc(C(F)(F)F)cc3)cc21	4.7 µM	11.8%	–	–
CC1(C)CC(C)(C)c2cc(NC(=O)Nc3ccc(OC(F)(F)F)cc3)ccc2O1	4.56 µM	91.5%	–	–
CC1(C)CC(C)(C)c2cc(NC(=O)Nc3ccc([N+](=O)[O-])cc3)ccc2O1	4.1 µM	79%	–	–
CCC1(CC)CC(CC)(CC)c2cc(NC(=O)Nc3ccc([N+](=O)[O-])cc3)ccc2O1	2.09 µM	91.4%	–	–
CC1(C)CCOc2ccc(NC(=O)Nc3ccc(C(F)(F)F)cc3)cc21	5 µM	47%	–	–
CC1(C)CCOc2ccc(NC(=S)Nc3ccc(OC(F)(F)F)cc3)cc21	4.3 µM	16%	–	–
CCC1(CC)CC(C)(C)c2cc(NC(=O)Nc3ccc([N+](=O)[O-])cc3)ccc2O1	2.17 µM	93.2%	–	–
CC1(C)CC(C)(C)c2cc(NC(=O)Nc3ccc(C#N)cc3)ccc2O1	4.7 µM	93%	–	–
CCC1(CC)CC(C)(C)c2cc(NC(=S)Nc3ccc([N+](=O)[O-])cc3)ccc2O1	2.9 µM	93.9%	–	–
CCC1(CC)CC(C)(C)Oc2ccc(NC(=S)Nc3ccc([N+](=O)[O-])cc3)cc21	3.69 µM	95.7%	–	–
CCC1(CC)CC(C)(C)Oc2ccc(NC(=O)Nc3ccc(C(F)(F)F)cc3)cc21	2.43 µM	93.3%	–	–
CCOC(=O)c1ccc(N/C(S)=N/c2ccc3c(c2)C(C)(C)CC(C)(C)O3)cc1	4.3 µM	26%	–	–
CC1(C)CC(C)(C)c2cc(NC(=S)Nc3ccc([N+](=O)[O-])cc3)ccc2S1 [SHETA-2]	3.17 µM	84.3%	> 1500 mg/kg/day	500 mg/kg/day
